Test results as given in patent US12565467B2, “Compounds, compositions, and methods for the treatment of inflammatory, degenerative, and neurodegenerative diseases” (Board of Supervisors of Louisiana State University and …, priority 2015, dated 2026).

Assays:
SIRT1 = SIRT1 abundance in ARPE-19 cells under oxidative stress; format: cell-based; details: ARPE-19 / human RPE cells confronted with OS
Description: FIG. 10. (A) Effect of NPD1 and VLC-PUFA C32:6 and C34:6 in mediating upregulation of SIRT1 in ARPE-19 cells. (B) Quantification of SIRT1 upregulation by NPD1, C32:6 and C34:6. SIRT1 (Sirtuin1) belongs to a family of highly conserved proteins linked to caloric restriction beneficial outcomes and aging by regulating energy metabolism, genomic stability and stress resistance. SIRT1 is a potential therapeutic target in several diseases including cancer, diabetes, inflammatory disorders, and neurodegenerative diseases or disorders. Elovanoids induce cell survival involving the upregulation of the Bcl2 class of survival proteins and the downregulation of pro-apoptotic Bad and Bax under oxidative stress (OS) in RPE cells. […] As a consequence, remarkable cell survival takes place. This target of elovanoids might be relevant to counteract consequences of several diseases associated with SIRT1.
FIG. 10—(A) Effect of NPD1 and VLC-PUFA C32:6 and C34:6 in mediating upregulation of SIRT1 in ARPE-19 cells. (B) Quantification of SIRT1 upregulation by NPD1, C32:6 and C34:6. SIRT1 (Sirtuin1) belongs to a family of highly conserved proteins linked to caloric restriction beneficial outcomes and aging by regulating energy metabolism, genomic stability and stress resistance. […]

[1] = system: human retinal pigment epithelial (RPE) cells deficient in 15-LOX-D1; assay: Oxidative stress (OS) induced apoptosis / cell death in 15-LOX-1-deficient human RPE cells; format: cell-based
Description: (§1) FIG. 4. (A) Cytoprotective effects of NPD1 like compounds on OS induced apoptosis. The results shown in this figure compare the cytoprotective capacities of long chain polyunsaturated fatty acids (VLC-PUFA), elovanoids ELV1 and ELV2, and neuroprotectin D1 (NPD1) in human retinal pigment epithelial (RPE) cells deficient in 15-LOX-D1 by measuring the protection of cell deaths induced by oxidative stress (OS) by these compounds. […] (B) Elovanoid precursors protect human retinal pigment epithelial cells deficient in 15-LOX-1, unlike DHA, from oxidative stress conditions.
(§2) FIG. 5. (A) Effect of PD146176 on VLC-PUFA-inhibited apoptosis induced by OS in ARPE-19 cells. […] It is evident that 32:6 and 34:6 LCAF were able to induce a substantial amount (55 and 48% respectively) of neuroprotection compared to PD 146176 (22%) when the stressed cells were treated with 5 μm of 15-LOX-D1 inhibitor. It can be concluded that since PD146176 is the inhibitor of 15-lipooxygenase enzyme, it might be protecting the stressed RPE cells by accumulating neuroprotective agents inside the cells. (B) Comparison of cytoprotective capacities of NPD1, C32:6 and C34:6 VLC-PUFA on oxidative stress-induced apoptosis in 15-LOX-1 cells. Shown here is the comparison of neuroprotection in a 15-LOX-1-deficient cell line under oxidative stress with 32:6 and 34:6 VLC-PUFA along with NPD1. 32:6 and 34:6 LCAF were able to induce neuroprotection (45% and 40% respectively), as compared to oxidative stress (90%) under this condition. (C) Concentration dependent cytoprotection by C32:6 and C34:6 VLC-PUFA in oxidative-stress induced ARPE-19 cells. A concentration (50-500 nM) kinetic of cytoprotection induced by LCAF 32:6 and 34:6 in RPE cell culture under OS was shown here. […] We decided to use 250 nM concentrations of 32:6 and 34:6 LCAF in subsequent experiments. (D) Selected images of alive and dead cells from this study (control, OS, treatment with C32:6).
as §1, with “Evidence of cytoprotection by 32.6 and 34.6 VLC-PUFA in oxidative-stress induced ARPE-19 cells as detailed in (FIG. 4): (A) Cytoprotective” for “FIG. 4. (A) Cytoprotective”, “capacities of very long chain” for “capacities of long chain”
FIG. 5—(A) Effect of PD146176 on VLC-PUFA inhibited apoptosis induced by OS in ARPE-19 cells. […] It is evident that 32:6 and 34:6 LCAF were able to induce a substantial amount (55 and 48% respectively) of neuroprotection compared to PD 146176 (22%) when the stressed cells were treated with 5 μm of 15-LOX-D1 inhibitor. It can be concluded that since PD146176 is the inhibitor of 15-lipooxygenase enzyme, it might be protecting the stressed RPE cells by accumulating neuroprotective agents inside the cells. (B) Comparison of cytoprotective capacities of NPD1, C32:6 and C34:6 VLC-PUFA on oxidative stress-induced apoptosis in 15-LOX-1 cells. Shown here is the comparison of neuroprotection in a 15-LOX-1-deficient cell line under oxidative stress with 32:6 and 34:6 VLC-PUFA along with NPD1. 32:6 and 34:6 VLC-PUFA were able to induce neuroprotection (45% and 40% respectively), as compared to oxidative stress (90%) under this condition. (C) Concentration dependent cytoprotection by C32:6 and C34:6 VLC-PUFA in oxidative-stress induced ARPE-19 cells. A concentration (50-500 nM) kinetic of cytoprotection induced by VLC-PUFA 32:6 and 34:6 in RPE cell culture under OS was shown here. […] We decided to use 250 nM concentrations of 32:6 and 34:6 VLC-PUFA in subsequent experiments. […]

ARPE-19 cells = assay: Oxidative stress induced apoptosis / cell death in ARPE-19 cells; format: cell-based, human; details: for concentration dependent cytoprotection (FIG. 5C): ARPE-19 under OS
Description: as §2
FIG. 5—(A) Effect of PD146176 on VLC-PUFA inhibited apoptosis induced by OS in ARPE-19 cells. […] It is evident that 32:6 and 34:6 LCAF were able to induce a substantial amount (55 and 48% respectively) of neuroprotection compared to PD 146176 (22%) when the stressed cells were treated with 5 μm of 15-LOX-D1 inhibitor. It can be concluded that since PD146176 is the inhibitor of 15-lipooxygenase enzyme, it might be protecting the stressed RPE cells by accumulating neuroprotective agents inside the cells. (B) Comparison of cytoprotective capacities of NPD1, C32:6 and C34:6 VLC-PUFA on oxidative stress-induced apoptosis in 15-LOX-1 cells. Shown here is the comparison of neuroprotection in a 15-LOX-1-deficient cell line under oxidative stress with 32:6 and 34:6 VLC-PUFA along with NPD1. 32:6 and 34:6 VLC-PUFA were able to induce neuroprotection (45% and 40% respectively), as compared to oxidative stress (90%) under this condition. (C) Concentration dependent cytoprotection by C32:6 and C34:6 VLC-PUFA in oxidative-stress induced ARPE-19 cells. A concentration (50-500 nM) kinetic of cytoprotection induced by VLC-PUFA 32:6 and 34:6 in RPE cell culture under OS was shown here. […] We decided to use 250 nM concentrations of 32:6 and 34:6 VLC-PUFA in subsequent experiments. (D) Selected images of alive and dead cells from this study (control, OS, treatment with C32:6).

Bid = Bid protein by western blot in ARPE-19 cells under oxidative stress; format: cell-based, human
Description: FIG. 6. (A) VLC-PUFA and elovanoids ELV1 and ELV2 mediated effect on Bid upregulation in ARPE-19 cells under stress. […] (B) VLC-PUFA and ELV1 and ELV2 compounds mediated upregulation of Bid in ARPE-19 cells under stress.
FIG. 6—(A) VLC-PUFA and elovanoids ELV1 and ELV2 mediated effect on Bid upregulation in ARPE-19 cells under stress. […] (B) VLC-PUFA and ELV1 and ELV2 compounds mediated upregulation of Bid in ARPE-19 cells under stress.

Bax = Bax expression in LOX-D RPE cells under oxidative stress; format: cell-based, human
Description: (§3) FIG. 8. (A) Bcl-xL-upregulation by elovanoids ELV1 and ELV2 in ARPE-19 cells under stress. Bcl-xL is the antiapoptotic Bcl2 family protein. Like proapoptotic proteins Bid and Bim, the effect of elovaniod precursors on the antiapoptotic protein Bcl-xL was tested in this figure in RPE cells under OS. […] (B) Effect of NPD1, ELV1 and ELV2 on Bax expression in LOX-D cells under stress. Proapoptotic Bax was tested in this figure. […] C) VLC-PUFA and elovanoids ELV1 and ELV2 mediated effect on Bax upregulation in ARPE-19 cells under stress. In this experiment, elovanoid precursors along with VLC-PUFA were tested on the downregulation of the Bax protein in RPE cells under stress.
as §3, with “8—(A)” for “8. (A)”

Bim = Bim protein in ARPE-19 cells under oxidative stress; format: cell-based, human; details: ARPE-19 cells under stress
Description: (§4) FIG. 7. (A) VLC-PUFA and ELV1 and ELV2 compounds mediated downregulation of Bim in ARPE-19 cells under stress. Bim, another class of Bcl2 family, has been tested like Bid in this figure to confirm our previous results. VLC-PUFA and elovanoids protected against the upregulation of Bim by OS, similar to Bid, in RPE cells under stress. (B) VLC-PUFA and elovanoids mediated effect on Bim downregulation in ARPE-19 cells under stress.
as §4, with “7—A)” for “7. (A)”, “[…]” for “downregulation”, “protected” for “protected against”

Bcl2 = Bcl2 protein in RPE (LOX-D / ARPE-19) cells under oxidative stress; format: cell-based, human
Description: FIG. 9. (A) VLC-PUFA and elovanoids ELV1 and ELV2 mediated effect on Bcl2 upregulation in ARPE-19 cells under stress. In this experiment we tested the effect of elovanoid precursors on Bcl2 upregulation along with VLC-PUFA in stressed RPE. (B) Quantification of Bcl2 upregulation by NPD1, ELV1 and ELV2 in LOX-D cells. Bcl2 is an important antiapoptotic protein of the Bcl2 family protein.
FIG. 9—(A) VLC-PUFA and elovanoids ELV1 and ELV2 mediated effect on Bcl2 upregulation in ARPE-19 cells under stress. In this experiment we tested the effect of elovaniod precursors on Blc2 upregulation along with VLC-PUFA in stressed RPE. (B) Quantification of Bcl2 upregulation by NPD1, ELV1 and ELV2 in LOX-D cells. Bcl2 is an important antiapoptotic protein of the Bcl2 family protein.

Bcl-xL = Bcl-xL protein in ARPE-19 cells under oxidative stress; format: cell-based, human; details: ARPE-19 cells under OS
Description: as §3
as §3, with “8—(A)” for “8. (A)”

SMILES | effect on SIRT1 abundance (FIG. 10) (SIRT1) | neuroprotection (FIG. 5B) ([1]; 15-LOX-1-deficient cell line under oxidative stress, compared to oxidative stress (90%)) [%] | protection against cell death under oxidative stress conditions (FIG. 4B) ([1]; 15-LOX-D1 cells under oxidative stress) | concentration dependent cytoprotection (FIG. 5C) (ARPE-19 cells; 250 nM) | concentration dependent cytoprotection (FIG. 5C) (ARPE-19 cells; 500 nM) | protection against OS in RPE cells (summary, FIGS. 4-10) (ARPE-19 cells; RPE cells) | concentration dependent cytoprotection (FIG. 5C) (ARPE-19 cells; starting from 50 nM) | neuroprotection (FIG. 5A) (ARPE-19 cells; stressed ARPE-19 cells treated with 5 μm of 15-LOX-D1 inhibitor PD146176) [%] | effect on Bid protein upregulated by OS (FIG. 6) (Bid) | effect on Bax upregulation by OS (FIG. 8B) (Bax) | effect on Bim upregulation by OS (FIG. 7) (Bim) | effect on Bcl2 protein (FIG. 9) (Bcl2) | effect on antiapoptotic Bcl-xL protein (FIG. 8A) (Bcl-xL) | activity against OS relative to the related VLC-PUFA (FIG. 4) ([1]; as sodium salts or methyl esters)
CC/C=C\C/C=C\C/C=C\C/C=C\C/C=C\C/C=C\CCCCCCCCCCCCC(=O)O [C32:6] | mediate the upregulation of SIRT1 | 45 | protect against cell death | very good intermediate effect | maximum effect | protective against OS | gradual decrease of cell deaths | 55 | – | – | – | – | – | –
CC/C=C\C[C@H](O)\C=C/C=C/C=C/[C@H](O)C/C=C\C/C=C\CCCCCCCCCCCCC(=O)O [ELV1, (14Z,17Z,20R,21E,23E,25Z,27S,29Z)-20,27-dihydroxydotriaconta-14,17,21,23,25,29-hexaenoic acid] | – | – | – | – | – | – | – | – | potent downregulation | potent downregulation | potent downregulation | potent upregulation | potent upregulation | more potent activity against OS than the related VLC-PUFA
